Assay results reported in US20230033195A1, “METHODS AND COMPOSITIONS FOR IMPROVING COGNITIVE FUNCTION” (THE JOHNS HOPKINS UNIVERSITY, priority 2011, published 2023).

Tests used:
aged-impaired (AI) rats = assay: eight-arm Radial Arm Maze (RAM) task with one-hour delay, spatial memory retention; format: in vivo, rat; details: for average no. of errors ± SEM: one-hour delay, vehicle 2.00 ± 0.42
Procedure: FIG. 3 depicts the effects of administering levetiracetam on the spatial memory retention of ten aged-impaired rats (AI) in an eight-arm Radial Arm Maze (RAM) test. Six treatment conditions were employed: vehicle control, levetiracetam (1.25 mg/kg), levetiracetam (2.5 mg/kg), levetiracetam (5 mg/kg), levetiracetam (10 mg/kg) and levetiracetam (20 mg/kg). In the RAM task used, there was a one-hour delay between presentation of a subset of arms (5 arms available and 3 arms blocked) and completion of the eight-arm win-shift task (eight arms available). Rats were pre-treated 30 - 40 minutes before daily trials with a one-time drug/control treatment. The number of errors made by the rats after the delay was used as a measure of spatial memory retention. Errors were defined as instances when rats entered an arm from which food had already been retrieved in the pre-delay component of the trial or when rats re-visited an arm in the post-delay session that had already been visited. Paired t-tests were used to compare the number of errors between different doses of levetiracetam and vehicle control.
The effects of levetiracetam on the spatial memory retention of aged-impaired (AI) rats were assessed in a Radial Arm Maze (RAM) behavioral task using vehicle control and five different dosage levels of levetiracetam (1.25 mg/kg/day, 2.5 mg/kg/day, 5 mg/kg/day, 10 mg/kg/day and 20 mg/kg/day). RAM behavioral tasks were preformed on ten AI rats. All six treatment conditions were tested on all ten rats, as described above for the MWM test.
The RAM apparatus used consisted of eight equidistantly-spaced arms. An elevated maze arm (7 cm width x 75 cm length) projected from each facet of an octagonal center platform (30 cm diameter, 51.5 cm height). Clear side walls on the arms were 10 cm high and were angled at 65° to form a trough. A food well (4 cm diameter, 2 cm deep) was located at the distal end of each arm. Froot Loops™ (Kellogg Company) were used as rewards. Blocks constructed of Plexiglas™ (30 cm height x 12 cm width) could be positioned to prevent entry to any arm. Numerous extra maze cues surrounding the apparatus were also provided.
The AI rats were initially subjected to a pre-training test (Chappell et al. Neuropharmacology 37: 481-487, 1998). The pre-training test consisted of a habituation phase (4 days), a training phase on the standard win-shift task (18 days) and another training phase (14 days) in which a brief delay was imposed between presentation of a subset of arms designated by the experimenter (e.g., 5 arms available and 3 arms blocked) and completion of the eight-arm win-shift task (i.e., with all eight arms available).
In the habituation phase, rats were familiarized to the maze for an 8-minute session on four consecutive days. In each of these sessions food rewards were scattered on the RAM, initially on the center platform and arms and then progressively confined to the arms. After this habituation phase, a standard training protocol was used, in which a food pellet was located at the end of each arm. Rats received one trial each day for 18 days. Each daily trial terminated when all eight food pellets had been obtained or when either 16 choices were made or 15 minutes had elapsed. After completion of this training phase, a second training phase was carried out in which the memory demand was increased by imposing a brief delay during the trial. At the beginning of each trial, three arms of the eight-arm maze were blocked. Rats were allowed to obtain food on the five arms to which access was permitted during this initial 'information phase' of the trial. Rats were then removed from the maze for 60 seconds, during which time the barriers on the maze were removed, thus allowing access to all eight arms. Rats were then placed back onto the center platform and allowed to obtain the remaining food rewards during this 'retention test' phase of the trial. The identity and configuration of the blocked arms varied across trials. […]

DG/CA3 of aMCI subjects = assay: fMRI activity during lure stimuli correctly identified as similar, DG/CA3; format: in vivo, human; details: 125 mg twice a day for two weeks
Procedure: FIG. 8B depicts the average activity in the left CA3 of aMCI subjects with placebo treatment or levetiracetam treatment (125 mg twice a day for two weeks) during the presentation of lure stimuli that the subject correctly identified as "similar."
A within-subjects trial of 8 weeks duration, involving 17 amnestic MCI (aMCI) subjects and 17 age-matched controls with a low dose treatment of levetiracetam is conducted. During the course of the study, each aMCI subject receives both drug and placebo treatments separately in two periods of two weeks each, with the order of treatments among different aMCI subjects counterbalanced (see FIG. 7). Age-matched control subjects treated with placebo serve as a further control. Cognitive testing and fMRI imaging data are obtained from the subjects after each two week period of drug/placebo treatment.
Imaging data are obtained through high-resolution methods developed in the Stark laboratory. Data are collected on a Phillips 3 Tesla scanner (Eindhoven, The Netherlands) equipped with an 8-channel SENSE (Sensitivity Encoding) head coil, located at the F.M. Kirby Research Center for Functional Brain Imaging at the Kennedy Krieger Institute (Baltimore, MD). […]
Group data are analyzed using a two-way Analysis of Variance (ANOVA) with trial types and group as fixed factors, and subject as a random factor nested within group. […]

`CC[C@@H](C(N)=O)N1CCCC1=O` [levetiracetam, (2S)-2-(2-oxopyrrolidin-1-yl) butanamide] was tested, and the “average no. of errors ± SEM” value (aged-impaired (AI) rats; 5 mg/kg/day i.p.) was 0.75 ± 0.32, the “memory performance relative to vehicle control” value (aged-impaired (AI) rats; 5 mg/kg/day, t(9) = 2.18, p = 0.057) was “significantly improved memory performance” and the “average no. of errors ± SEM” value (aged-impaired (AI) rats; 10 mg/kg/day i.p.) was 0.80 ± 0.27. The “memory performance relative to vehicle control” value (aged-impaired (AI) rats; 10 mg/kg/day, t(9) = 2.37, p = 0.042) was “significantly improved memory performance”, the “performance of AI rats in the radial maze task” value (aged-impaired (AI) rats; levetiracetam 20 mg/kg) was “fails to improve the performace” and the “effective in reducing the number of errors, on its own” value (aged-impaired (AI) rats; levetiracetam i.p. 1.25 mg/kg) was “not”. For the same compound, the “effective in reducing the number of errors, on its own” value (aged-impaired (AI) rats; levetiracetam i.p. 2.5 mg/kg) was “not”, the “effective in reducing the number of errors, on its own” value (aged-impaired (AI) rats; levetiracetam i.p. 5-10 mg/kg) was “effective” and the “DG/CA3 activity compared with control subjects treated with placebo” value (DG/CA3 of aMCI subjects) was “statistically indistinguishable”. For the same compound, the “DG/CA3 activity during successful memory judgments, vs placebo treatment” value (DG/CA3 of aMCI subjects; p = 0.037) was “reduces DG/CA3 hyper-activity”.
